Experimental data reported in patent publication US20030032078A1, “Methods and compositions for the treatment of macular and retinal degenerations” (Board of Regents, The University of Texas System, priority 2001, published 2003).
“Also recorded” adds a separate entry of the source. Like-named read-outs stand apart in the source and are kept apart here.

How the values were obtained:
[1] = system: microsomal membranes prepared from bovine RPE; assay: Retinyl ester formation and isomerization from [3H]retinols in microsomal membranes from bovine RPE; format: biochemical
Procedure: The retinyl-ester content of fresh bovine ocular tissues were analyzed. Bovine RPE contained approximately 95% all-trans-retinyl esters (atRE) and 5% 1cRE. No retinyl esters were detectable in bovine retinas. When [^3H]atROL was added to microsomal membranes prepared from bovine RPE, the formation of [3H]atRE, and subsequent formation of [^3H]11cROL were observed. […] The isomeric inhibitor, 11-cis-retinyl α-bromoacetate (cRBA) was also synthesized. This agent suppressed the formation of [^3H]11cRE from [^3H]11cROL added to bovine-RPE membranes, but had no effect on the synthesis of [^3H]atRE or [^3H]11cROL from added [^3H]atROL. No ester-synthase activity was detected in bovine retinas. The results of these studies on rod-dominant bovine eyes are in full accord with the published results of other investigators (Rando et al., 1992; Saari et al., 1994; Crouch et al., 1996; Trehan et al., 1990).

[2] = system: membranes from chicken and ground squirrel retinas; assay: Retinyl ester formation and isomerization from [3H]atROL in membranes from chicken and ground squirrel retinas; format: biochemical; conditions: chicken and ground squirrel retina membranes
Text: There are striking differences in retinyl-ester content and retinoid turnover upon analysis of ocular tissues from cone-dominant ground squirrel and chicken. Chicken retinas contained 60% 11cRE and 40% atRE, while ground-squirrel retinas contained 80% 11cRE and 20% atRE. The ratio of cones to rods is 60:40 in chicken (Meyer et al., 1973), 96:4 in ground squirrel (West et al., 1975), 3:97 in mouse (Carter-Dawson et al., 1979), and 8:92 in bovine retina (Krebs et al., 1982). Thus, across multiple species, the level of 11cRE in retina is loosely correlated with the ratio of cone to rod photoreceptors. […] During time-course studies, [^3H]11cROL always preceded the appearance of [3H]11cRE. […] In particular, this new all-trans-retinol isomerase (atRI) is insensitive to tRBA. This insensitivity rules out the trivial explanation of RPE contamination in retinal membrane preparations. […] Unlike LRAT, this new ester synthase is not inhibited by tRBA or cRBA, and has high specificity for the 11cROL substrate.

[3] = system: abcr−/− mice; assay: A2E and A2PE-H2 levels in ocular tissues of abcr−/− mice treated with isotretinoin (HPLC); format: in vivo, mouse
Procedure: FIG. 7—A2E and A2PE-H2 in abcr−/− ocular tissues following treatment with isotretinoin. A2E and A2PE-H2 were extracted from the indicated tissues and analyzed by HPLC as previously described (Mata et al., 2000; Weng et al., 1999). (FIG. 7A) A2E levels in abcr−/− RPE from four-month-old mice treated for one month with isotretinoin at 40 mg/kg/day (4-mo 13cRA), four-month-old mice treated with DMSO carrier alone (4-mo DMSO), and three-month-old untreated mice (3-mo untreated). (FIG. 7B) A2PE-H2 levels in abcr−/− RPE from the same animals in panel (A) plus four-month-old untreated mice (4-mo untreated). (FIG. 7C) A2PE-H2 levels in abcr−/− retinas from the same animals in panel (B). All data are shown as milliabsorption units (mAU) at the indicated wavelengths±SEM (n=3).
Tissue Preparation and Extraction. Mouse and human tissues were homogenized in 1 ml of PBS. For analysis of mouse outer segments, dissected retinas were shaken on a vortex mixer in 8% Optiprep/Ringer's buffer and fractionated by centrifugation through an Optiprep step-gradient according to the procedure of Tsang et al. (1998). Collected outer segments were suspended in 1 ml PBS and homogenized. 1 ml of chloroform/methanol (2:1, v/v) was added to each homogenate. Phospholipids and chloroform-soluble fluorophores were extracted twice from the samples following addition of 4 ml of chloroform and 3 ml water. The pooled organic phases were dried under a stream of argon. Sample residues were resuspended in 200- 400 μl of hexane, and analyzed by HPLC.
Sample extracts were analyzed by normal phase HPLC using an HP 1100 liquid chromatograph with a photodiode array detector. Chromatography conditions were as previously described (Birnbach et al., 1994) using a silica column (Microsorb 5 μm Si, 250×4.6 mm) and the mobile phase: hexane/2-propanol/ethanol/25 mM potassium phosphate/acetic acid (485:376:100:40:0.275, v/v; pH 7.0). For A2PE-H2 purification, the water content was reduced to 2.5% for better resolution of fatty acyl esters. Spectra for the eluted peaks were corrected by subtracting the nearest integrated baseline to remove solvent absorption. A2-E, phosphatidylethanolamine, and all-trans-RAL were quantitated by comparing the sample peak-area to a calibration curve constructed with authentic standards (18:0-22:6 for the phosphatidylethanolamine standard) (Birnbach et al., 1994). […] In Table 6, APE and protonated-APE were quantitated using published molar extinction coefficients (Anderson et al., 1996).
Three-month-old abcr−/− mice were treated with isotretinoin (13 cis retinoic acid) for one month.

[4] = system: wild-type mice; assay: Retinoid profile after intraperitoneal injection of isotretinoin into light-adapted wild-type mice; format: in vivo, mouse
Text: (§1) Long delays in 11cRAL regeneration are also observed after a photobleach in mice treated with isotretinoin. This alteration in the retinoid profile is similar to the pattern in 11cRDH knockout-mice (Driessen et al., 2000).

[5] = system: mice; assay: Photoreceptor degeneration by histologic or electroretinographic (ERG) analysis after prolonged isotretinoin treatment; format: in vivo, mouse; conditions: prolonged treatment at doses up to 50 mg/kg/day (25× the maximum human dose)
Text: as §1

[6] = system: 11cRDH; conditions: Law et al., 1989, Gamble et al., 1999, cited from earlier work
[7] = system: mice; conditions: Yuschak et al., 1993; cited from earlier work
[8] = humans; cited from earlier work
[9] = system: humans; conditions: clinical use for acne; due to impaired regeneration of rhodopsin; cited from earlier work
[10] = Isotretinoin in retina and RPE by HPLC analysis after intraperitoneal injection
[11] = system: patients with retinitis pigmentosa (RP) and related retinal degenerations; conditions: supplemental lutein; Dagnelie et al., 2000; cited from earlier work
[12] = biological target: T1, LRAT (Bos taurus, UniProt Q9BGL2); conditions: Trehan et al., 1990; cited from earlier work
T1 construct: microsomal membranes prepared from bovine RPE; from tissue; host or cells: bovine retinal pigment epithelium, microsomal membranes
T1 sequence (Q9BGL2 1-230): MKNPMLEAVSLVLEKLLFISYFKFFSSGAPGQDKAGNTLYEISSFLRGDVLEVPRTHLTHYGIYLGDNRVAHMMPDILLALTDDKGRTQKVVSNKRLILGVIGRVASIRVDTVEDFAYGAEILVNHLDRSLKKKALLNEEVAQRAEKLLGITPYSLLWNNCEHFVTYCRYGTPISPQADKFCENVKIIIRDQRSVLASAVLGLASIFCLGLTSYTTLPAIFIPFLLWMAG

[13] = system: patients with neovascularisation extending under the center of the retina; conditions: cited from earlier work
[14] = system: rodent model; conditions: cited from earlier work
[15] = light-adapted wild-type mice, intraperitoneal injection

CC1=C(/C=C/C(C)=C/C=C\C(C)=C/COC(=O)CBr)C(C)(C)CCC1 [cRBA, 11-cis-retinyl α-bromoacetate]
formation of [3H]11cRE from added [3H]11cROL [1]: suppressed | formation of atRE and 11cROL from added [3H]atROL [1]: no effect | synthesis of [3H]11cRE [2]: no effect

CC1=C(/C=C/C(C)=C/C=C/C(C)=C\C(=O)O)C(C)(C)CCC1 [isotretinoin, 13-cis-retinoic acid]
suppression of A2E accumulation in RPE ([3]; abcr−/− mice, isotretinoin 40 mg/kg/day for one month, FIG. 7A): approximately two-fold | suppression of A2PE-H2 accumulation in RPE ([3]; abcr−/− mice, isotretinoin 40 mg/kg/day for one month, FIG. 7B): approximately three-fold | A2PE-H2 in retina ([3]; four-month-old abcr−/− mice after one month of isotretinoin, FIG. 7C): near absence; also recorded: virtually undetectable | A2E in RPE, level relative to sham-treated (DMSO) controls ([3]; four-month-old abcr−/− mice treated for one month with isotretinoin at 40 mg/kg/day): approximately 50% | 11cRAL and atRAL in outer segments [4, 15]: Profound depletion | 11cRE in RPE cells [4, 15]: accumulation | 11cRAL regeneration after a photobleach ([4]; mice treated with isotretinoin): Long delays | photoreceptor degeneration by histologic or electroretinographic (ERG) analysis [5]: No photoreceptor degeneration | inhibition of 11cRDH in RPE [6]: potent inhibitor | inhibition of 11cRDH in RPE ([6]; listed as Isotretinoin): inhibit 11cRDH | tolerated dose [7]: up to 400 mg/kg/day | serum half-life [8]: 10 to 20 h | side effect night blindness [9]: common side effect | detection in retina and RPE ([10]; five minutes following an intraperitoneal injection): detected | tissue concentrations ([10]; one hour following a single injection at 4 mg/kg): micromolar range

CC1=C[C@H](O)CC(C)(C)[C@H]1/C=C/C(C)=C/C=C/C(C)=C/C=C/C=C(C)/C=C/C=C(C)/C=C/C1=C(C)C[C@@H](O)CC1(C)C [lutein]
effect on vision [11]: short term improvements in vision

CC1=C(/C=C/C(C)=C/C=C/C(C)=C/COC(=O)CBr)C(C)(C)CCC1 [tRBA, all-trans-retinyl α-bromoacetate]
formation of [3H]11cRE from added [3H]11cROL [1]: completely inhibited | formation of atRE and 11cROL from added [3H]atROL [1]: completely suppressed | formation of [3H]11cROL or [3H]11cRE from added [3H]atROL [2]: no effect | formation of [3H]atRE from added [3H]atROL [2]: completely suppressed | inhibition of LRAT [12]: potent inhibitor

verteporfin
risk of moderate and severe vision loss ([13]; at one year, reduced from 61%): 33% | risk of moderate and severe vision loss ([13]; at two years, reduced from 69%): 41%

B1: Glial Derived Neurotrophic Factor: a survival factor which has slowed degeneration in a rodent model (protein, UniProt P39905 78-211, looked up)
Glial cell line-derived …: SPDKQMAVLPRRERNRQAAAANPENSRGKGRRGQRGKNRGCVLTAIHLNVTDLGLGYETKEELIFRYCSGSCDAAETTYDKILKNLSRNRRLVSDKVGQACCRPIAFDDDLSFLDDNLVYHILRKHSAKRCGCI
effect on retinal degeneration [14]: slowed degeneration
